Measurements: ChEMBL document CHEMBL1132262, “Estrogen receptor subtype-selective ligands: asymmetric synthesis and biological evaluation of cis- and trans-5,11-dialkyl- 5,6,11, 12-tetrahydrochrysenes” (J Med Chem, 1999)

Each compound was assayed against Estrogen receptor beta (Homo sapiens) (UniProt Q92731) (assay: Binding affinity for human ER(estrogen receptor)beta).
Sequence of Estrogen receptor beta (Homo sapiens) (Q92731 whole entry): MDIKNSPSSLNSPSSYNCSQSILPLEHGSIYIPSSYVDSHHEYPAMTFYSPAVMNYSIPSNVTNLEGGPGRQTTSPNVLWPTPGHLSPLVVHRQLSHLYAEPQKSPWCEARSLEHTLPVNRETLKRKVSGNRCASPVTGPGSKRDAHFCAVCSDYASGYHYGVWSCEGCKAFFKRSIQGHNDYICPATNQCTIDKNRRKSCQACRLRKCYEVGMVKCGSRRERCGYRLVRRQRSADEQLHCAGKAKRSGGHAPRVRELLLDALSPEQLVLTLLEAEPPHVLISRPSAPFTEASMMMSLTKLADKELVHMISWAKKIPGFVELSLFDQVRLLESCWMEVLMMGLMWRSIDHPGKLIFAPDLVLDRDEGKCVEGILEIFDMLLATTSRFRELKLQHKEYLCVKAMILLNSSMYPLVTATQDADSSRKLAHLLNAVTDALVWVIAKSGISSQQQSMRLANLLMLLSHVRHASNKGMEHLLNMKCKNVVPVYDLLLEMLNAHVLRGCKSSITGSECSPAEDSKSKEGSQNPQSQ

SMILES	Relative binding affinity
C[C@]12CC[C@@H]3c4ccc(O)cc4CC[C@H]3[C@@H]1CC[C@@H]2O	100
CCC[C@H]1Cc2cc(O)ccc2C2=C1c1ccc(O)cc1C[C@@H]2CCC	5.1
Oc1ccc2c(c1)CCC1=C2CCc2cc(O)ccc21	6.5
CCC[C@@H]1Cc2cc(O)ccc2C2=C1c1ccc(O)cc1C[C@H]2CCC	26
CCCC1Cc2cc(O)ccc2C2=C1c1ccc(O)cc1CC2CCC (stereo not drawn)	92.3

Next, values leading:

Relative binding affinity	SMILES
76	CC1Cc2cc(O)ccc2C2=C1c1ccc(O)cc1C[C@H]2C (single isomer, unassigned)
75	CC1Cc2cc(O)ccc2C2=C1c1ccc(O)cc1C[C@@H]2C (single isomer, unassigned)
254	C[C@@H]1Cc2cc(O)ccc2C2=C1c1ccc(O)cc1C[C@@H]2C
